# Assay results as given in US20170095502A1, “Antimicrobial Metal-Binding Polymers” (priority 2015, published 2017).
# How the values were obtained:
# S. aureus BAA-44 = test: MIC alone or in combination with tetracycline; details: for MIC: Staphylococcus aureus, BAA44
# [1] = tested on: Burkholderia pseudomallei (melioidosis); type: cell-based
# [2] = tested on: Vancomycin-resistant Staphylococcus aureus (VRSA); test: inhibitory concentrations against drug-resistant bacteria (potentiation of vancomycin); details: at 16 ug/ml vancomycin
# Staphylococcus aureus = test: inhibitory concentrations in hospital-acquired clinical wound isolates
# Acinetobacter baumannii = test: as above
# Enterococcus faecium = test: as above
# [3] = tested on: Bacillus anthracis (anthrax); type: cell-based
# [4] = tested on: methicillin-resistant Staphylococcus aureus; test: checkerboard assay, MIC; details: MRSA
# Yersinia pestis (plague) = type: cell-based
# [5] = tested on: Francisella tularensis (rabbit fever); type: cell-based
# Candida albicans = test: inhibitory concentrations in hospital-acquired clinical wound isolates
# [6] = tested on: Methicillin-resistant Staphylococcus aureus (MRSA); test: inhibitory concentrations against drug-resistant bacteria (potentiation of methicillin); details: at 4 ug/ml methicillin
# [7] = tested on: Vancomycin-resistant Enterococcus faecium (VRE); test: inhibitory concentrations against drug-resistant bacteria (potentiation of vancomycin); details: at 16 μg/ml vancomycin
# [8] = tested on: vancomycin-resistant Enterococcus faecalis; test: checkerboard assay, MIC; details: VRE
# Pseudomonas aeruginosa = test: inhibitory concentrations in hospital-acquired clinical wound isolates
compound,measurement,setting,value
"S=C(S)N1CCCC1 [PDTC, pyrrolidine dithiocarbamate]",MIC,S. aureus BAA-44,9 µg/mL
same,effect of PDTC and tetracycline (FIG. 1),S. aureus BAA-44; combination with tetracycline,synergistic effect
same,activity against biothreats,[1],active
same,Inhibitory concentration,[2]; clinical isolate VRS 1,13 µg/mL
same,Inhibitory concentration,[2]; clinical isolate VRS 9,13 µg/mL
same,Inhibitory concentration,[2]; clinical isolate VRS 116,13 µg/mL
same,Inhibitory concentration,Staphylococcus aureus; clinical isolate 6061,25 µg/mL
same,Inhibitory concentration,Staphylococcus aureus; clinical isolate 6108,12.5 µg/mL
same,Inhibitory concentration,Staphylococcus aureus; clinical isolate B-313,25 µg/mL
same,Inhibitory concentration,Staphylococcus aureus; clinical isolate B-767,50 µg/mL
same,Inhibitory concentration,Staphylococcus aureus; clinical isolate B-14358,50 µg/mL
same,Inhibitory concentration,Acinetobacter baumannii; clinical isolate 6043,100 µg/mL
same,Inhibitory concentration,Acinetobacter baumannii; clinical isolate 6063,100 µg/mL
same,Inhibitory concentration,Acinetobacter baumannii; clinical isolate 6175,100 µg/mL
same,Inhibitory concentration,Acinetobacter baumannii; clinical isolate 6272,100 µg/mL
same,Inhibitory concentration,Acinetobacter baumannii; clinical isolate 6838,100 µg/mL
same,Inhibitory concentration,Enterococcus faecium; clinical isolate 6080,50 µg/mL
same,Inhibitory concentration,Enterococcus faecium; clinical isolate 6246,50 µg/mL
same,Inhibitory concentration,Enterococcus faecium; clinical isolate 6831,50 µg/mL
same,activity against biothreats,[3],active
same,MIC,[4],62.5 µg/mL
same,activity against biothreats,Yersinia pestis (plague),active
same,activity against biothreats,[5],active
same,Inhibitory concentration,Candida albicans; clinical isolate Y-236,12.5 µg/mL
same,Inhibitory concentration,Candida albicans; clinical isolate Y-477,12.5 µg/mL
same,Inhibitory concentration,Candida albicans; clinical isolate Y-6359,12.5 µg/mL
same,Inhibitory concentration,Candida albicans; clinical isolate Y-12983,12.5 µg/mL
same,Inhibitory concentration,Candida albicans; clinical isolate Y-27022,6.25 µg/mL
same,Inhibitory concentration,[6]; clinical isolate 6006,25 µg/mL
same,Inhibitory concentration,[6]; clinical isolate 6051,13 µg/mL
same,Inhibitory concentration,[6]; clinical isolate 6544,13 µg/mL
same,Inhibitory concentration,[6]; clinical isolate 6605,13 µg/mL
same,Inhibitory concentration,[6]; clinical isolate 6607,13 µg/mL
same,Inhibitory concentration,[7]; clinical isolate 6098,50 µg/mL
same,Inhibitory concentration,[7]; clinical isolate 6185,50 µg/mL
same,Inhibitory concentration,[7]; clinical isolate 6591,50 µg/mL
same,MIC,[8],62.5 µg/mL
same,Inhibitory concentration,Pseudomonas aeruginosa; clinical isolate 5983,100 µg/mL
same,Inhibitory concentration,Pseudomonas aeruginosa; clinical isolate 6162,100 µg/mL
same,Inhibitory concentration,Pseudomonas aeruginosa; clinical isolate 6186,100 µg/mL
same,Inhibitory concentration,Pseudomonas aeruginosa; clinical isolate 6295,100 µg/mL
same,Inhibitory concentration,Pseudomonas aeruginosa; clinical isolate 6311,100 µg/mL
"COc1ccc2cc3[n+](cc2c1OC)CCc1cc2c(cc1-3)OCO2 [Berberine, berberine, reference compound]",MIC,[4],500 µg/mL
same,MIC,[8],500 µg/mL
"CN(C)[C@@H]1C(O)=C(C(N)=O)C(=O)[C@@]2(O)C(O)=C3C(=O)c4c(O)cccc4[C@@](C)(O)[C@H]3C[C@@H]12 [TET, tetracycline, reference compound]",MIC,S. aureus BAA-44,32 µg/mL
